In ChEMBL document CHEMBL5131495, “Discovery of unique thiazolidinone-conjugated coumarins as novel broad spectrum antibacterial agents” (Eur J Med Chem, 2022):
Values after ≈ are worked out from the molar mass of the structure shown. Active and inactive are the calls of the source. The rule behind the calls is not given here.

Columns and labels:
Staphylococcus aureus [1] = assay: Antibacterial activity against Staphylococcus aureus assessed as inhibition of bacterial growth; format: functional
Staphylococcus aureus [2] = assay: Antibacterial activity against methicillin resistant Staphylococcus aureus N315 assessed as inhibition of bacterial growth; format: functional
Enterococcus faecalis = assay: Antibacterial activity against Enterococcus faecalis assessed as inhibition of bacterial growth; format: functional
Staphylococcus aureus [3] = assay: Antibacterial activity against Staphylococcus aureus ATCC 25923 assessed as inhibition of bacterial growth; format: functional
Staphylococcus aureus [4] = assay: Antibacterial activity against Staphylococcus aureus ATCC 29213 assessed as inhibition of bacterial growth; format: functional
Klebsiella pneumoniae = assay: Antibacterial activity against Klebsiella pneumoniae assessed as inhibition of bacterial growth; format: functional
Escherichia coli [5] = assay: Antibacterial activity against Escherichia coli assessed as inhibition of bacterial growth; format: functional
Escherichia coli [6] = assay: Antibacterial activity against Escherichia coli ATCC 25922 assessed as inhibition of bacterial growth; format: functional
Pseudomonas aeruginosa [7] = assay: Antibacterial activity against Pseudomonas aeruginosa assessed as inhibition of bacterial growth; format: functional
Pseudomonas aeruginosa [8] = assay: Antibacterial activity against Pseudomonas aeruginosa ATCC 27853 assessed as inhibition of bacterial growth; format: functional
Acinetobacter baumannii [9] = assay: Antibacterial activity against Acinetobacter baumannii assessed as inhibition of bacterial growth; format: functional
Acinetobacter baumannii [10] = assay: Antibacterial activity against Acinetobacter baumannii assessed as reduction in GSH activity by Ellman's method; format: functional, organism-based; settings: DDE = dose-dependent effect
Calf thymus DNA [11] = assay: Binding affinity to calf thymus DNA assessed as reduction in fluorescence intensity of acridine orange-DNA complex formation by measuring […] by competitive binding assay; format: nucleic-acid assay; settings: Bos taurus; DDE = dose-dependent effect
[12] = Cytotoxicity against human endothelial cells assessed as cell viability at 10 ug/ml by CCK8 method relative to control; format: toxicity, cell-based; settings: at 10 µg/mL, read-out: Activity
[13] = Cytotoxicity against human liver cancer cells assessed as cell viability at 10 ug/ml by CCK8 method relative to control; format: functional; settings: read-out: Activity
[14] = Hemolytic activity in human RBC assessed as hemolysis rate at 64 times MIC relative to control; format: toxicity, cell-based, Erythrocyte; settings: red blood cells (erythrocytes), read-out: Activity
Acinetobacter baumannii [15] = assay: Anti- biofilm activity against Acinetobacter baumannii assessed as decrease in biofilm viability at 2 ug/ml by resazurin dye based assay relative to control; format: functional; settings: dose 2 µg/ml
Cell membrane [16] = assay: Induction of cell membrane depolarization in Acinetobacter baumannii assessed as increase in fluorescence intensity at MIC by DiSC35 dye-based fluorescence assay; format: subcellular; settings: time <= 60.0 min, TDE = time-dependent effect
Cell membrane [17] = assay: Induction of outer membrane permeabilization in Acinetobacter baumannii assessed as increase in fluorescence intensity at MIC by NPN-dye based fluorescence assay; format: subcellular; settings: time <= 120.0 min
Cell membrane [18] = assay: Induction of inner membrane permeabilization in Acinetobacter baumannii assessed as increase in fluorescence intensity by propidium iodide staining based fluorescence analysis; format: subcellular; settings: DDE = dose-dependent effect
Cell membrane [19] = assay: Induction of inner membrane permeabilization in Acinetobacter baumannii assessed as increase in red fluorescence intensity by fluorescence microscopic analysis
Cell membrane [20] = assay: Induction of cell membrane damage in Acinetobacter baumannii assessed as increase in protein leakage; format: subcellular
Cell membrane [21] = assay: Induction of cell membrane damage in Acinetobacter baumannii assessed as increase in nucleic acid leakage by measuring fold increase in absorbance at 8 times MIC by spectrophotometry; format: subcellular
Cell membrane [22] = assay: Induction of cell membrane destruction in Acinetobacter baumannii assessed as reduction in metabolic activity; format: subcellular; settings: DDE = dose-dependent effect
Acinetobacter baumannii [23] = assay: Induction of ROS production in Acinetobacter baumannii by DCFH-DA staining based fluorescence analysis; format: functional; settings: DDE = dose-dependent effect
Acinetobacter baumannii [24] = assay: Induction of ROS production in Acinetobacter baumannii assessed as fold change at 16 times MIC by DCFH-DA staining based fluorescence analysis; format: functional
Acinetobacter baumannii [25] = assay: Antibacterial activity against Acinetobacter baumannii assessed fold increase in malondialdehyde production measured at upto 16 times MIC; format: functional
Calf thymus DNA [26] = assay: Binding affinity to calf thymus DNA assessed as hypochromic shift by UV-vis spectrophotometric analysis; format: nucleic-acid assay; settings: Bos taurus

| SMILES | MIC (Staphylococcus aureus [1]) | MIC (Staphylococcus aureus [2]) | MIC (Enterococcus faecalis) | MIC (Staphylococcus aureus [3]) | MIC (Staphylococcus aureus [4]) | MIC (Klebsiella pneumoniae) | MIC (Escherichia coli [5]) | MIC (Escherichia coli [6]) | MIC (Pseudomonas aeruginosa [7]) | MIC (Pseudomonas aeruginosa [8]) | MIC (Acinetobacter baumannii [9]) | also measured |
| --- | --- | --- | --- | --- | --- | --- | --- | --- | --- | --- | --- | --- |
| Cc1cc(=O)oc2cc(/N=C3/S/C(=C\c4ccc(O)c(Br)c4)C(=O)N3CCO)ccc12 | 16 µg/mL (≈ 31.9 µM) | 128 µg/mL (≈ 255 µM) | 64 µg/mL (≈ 128 µM) | 64 µg/mL (≈ 128 µM) | 128 µg/mL (≈ 255 µM) | 64 µg/mL (≈ 128 µM) | 256 µg/mL (≈ 511 µM) | 32 µg/mL (≈ 63.8 µM) | 32 µg/mL (≈ 63.8 µM) | 32 µg/mL (≈ 63.8 µM) | 64 µg/mL (≈ 128 µM) |  |
| Cc1cc(=O)oc2cc(/N=C3/S/C(=C\c4ccc(F)cc4)C(=O)N3CCO)ccc12 | 64 µg/mL (≈ 151 µM) | 64 µg/mL (≈ 151 µM) | 32 µg/mL (≈ 75.4 µM) | 128 µg/mL (≈ 302 µM) | 16 µg/mL (≈ 37.7 µM) | 256 µg/mL (≈ 603 µM) | 128 µg/mL (≈ 302 µM) | 128 µg/mL (≈ 302 µM) | 32 µg/mL (≈ 75.4 µM) | 64 µg/mL (≈ 151 µM) | 4 µg/mL (≈ 9.42 µM) |  |
| Cc1cc(=O)oc2cc(/N=C3/S/C(=C\c4ccccc4F)C(=O)N3CCO)ccc12 | 1 µg/mL (≈ 2.36 µM) | 4 µg/mL (≈ 9.42 µM) | 0.25 µg/mL (≈ 0.589 µM) | 32 µg/mL (≈ 75.4 µM) | 64 µg/mL (≈ 151 µM) | 32 µg/mL (≈ 75.4 µM) | 32 µg/mL (≈ 75.4 µM) | 16 µg/mL (≈ 37.7 µM) | 4 µg/mL (≈ 9.42 µM) | 1 µg/mL (≈ 2.36 µM) | 16 µg/mL (≈ 37.7 µM) |  |
| Cc1ccc(/C=C2\S/C(=N/c3ccc4c(C)cc(=O)oc4c3)N(CCO)C2=O)cc1 | 64 µg/mL (≈ 152 µM) | 128 µg/mL (≈ 304 µM) | 256 µg/mL (≈ 609 µM) | 256 µg/mL (≈ 609 µM) | 128 µg/mL (≈ 304 µM) | 256 µg/mL (≈ 609 µM) | 128 µg/mL (≈ 304 µM) | 256 µg/mL (≈ 609 µM) | 128 µg/mL (≈ 304 µM) | 32 µg/mL (≈ 76.1 µM) | 8 µg/mL (≈ 19 µM) |  |
| Cc1cc(=O)oc2cc(/N=C3/S/C(=C\c4ccc(Cl)cc4Cl)C(=O)N3CCO)ccc12 | 256 µg/mL (≈ 539 µM) | 32 µg/mL (≈ 67.3 µM) | 128 µg/mL (≈ 269 µM) | 128 µg/mL (≈ 269 µM) | 128 µg/mL (≈ 269 µM) | 64 µg/mL (≈ 135 µM) | 256 µg/mL (≈ 539 µM) | 256 µg/mL (≈ 539 µM) | 64 µg/mL (≈ 135 µM) | 128 µg/mL (≈ 269 µM) | 4 µg/mL (≈ 8.41 µM) |  |
| C=CCn1cc(/C=C2\S/C(=N/c3ccc4c(C)cc(=O)oc4c3)N(CCO)C2=O)c2ccccc21 | 128 µg/mL (≈ 264 µM) | 128 µg/mL (≈ 264 µM) | 128 µg/mL (≈ 264 µM) | 32 µg/mL (≈ 65.9 µM) | 64 µg/mL (≈ 132 µM) | 8 µg/mL (≈ 16.5 µM) | 128 µg/mL (≈ 264 µM) | 128 µg/mL (≈ 264 µM) | 64 µg/mL (≈ 132 µM) | 32 µg/mL (≈ 65.9 µM) | 64 µg/mL (≈ 132 µM) |  |
| Cc1cc(=O)oc2cc(/N=C3/S/C(=C\c4c[nH]c5ccccc45)C(=O)N3CCO)ccc12 | 2 µg/mL (≈ 4.49 µM) | 0.25 µg/mL (≈ 0.561 µM) | 0.25 µg/mL (≈ 0.561 µM) | 0.25 µg/mL (≈ 0.561 µM) | 0.25 µg/mL (≈ 0.561 µM) | 0.5 µg/mL (≈ 1.12 µM) | 0.25 µg/mL (≈ 0.561 µM) | 1 µg/mL (≈ 2.24 µM) | 256 µg/mL (≈ 575 µM) | 32 µg/mL (≈ 71.8 µM) | 0.25 µg/mL (≈ 0.561 µM) | Activity (Acinetobacter baumannii [10]): Dde; Activity (Calf thymus DNA [11]): Dde; viability at 10 ug/ml [12]: 75%; viability at 10 µg/mL [13]: 47%; hemolysis at 64 times MIC [14]: < 5%; Activity (Acinetobacter baumannii [15]): 45%; Activity (Cell membrane [16]): Tde; Activity (Cell membrane [17]): Active; Activity (Cell membrane [18]): Dde; Activity (Cell membrane [19]): Active; Activity (Cell membrane [20]): Active; fold change (FC) (Cell membrane [21]): 3.8; Activity (Cell membrane [22]): Dde; Activity (Acinetobacter baumannii [23]): Dde; fold change (FC) (Acinetobacter baumannii [24]): 5.3; fold change (FC) (Acinetobacter baumannii [25]): 3; Activity (Calf thymus DNA [26]): Active |
| Cc1cc(=O)oc2cc(/N=C3/S/C(=C\c4ccc[nH]4)C(=O)N3CCO)ccc12 | 64 µg/mL (≈ 162 µM) | 64 µg/mL (≈ 162 µM) | 128 µg/mL (≈ 324 µM) | 128 µg/mL (≈ 324 µM) | 64 µg/mL (≈ 162 µM) | 64 µg/mL (≈ 162 µM) | 2 µg/mL (≈ 5.06 µM) | 128 µg/mL (≈ 324 µM) | 256 µg/mL (≈ 647 µM) | 32 µg/mL (≈ 80.9 µM) | 4 µg/mL (≈ 10.1 µM) |  |
| Cc1cc(=O)oc2cc(/N=C3/S/C(=C\c4ncc[nH]4)C(=O)N3CCO)ccc12 | 8 µg/mL (≈ 20.2 µM) | 64 µg/mL (≈ 161 µM) | 64 µg/mL (≈ 161 µM) | 128 µg/mL (≈ 323 µM) | 32 µg/mL (≈ 80.7 µM) | 16 µg/mL (≈ 40.4 µM) | 32 µg/mL (≈ 80.7 µM) | 64 µg/mL (≈ 161 µM) | 32 µg/mL (≈ 80.7 µM) | 128 µg/mL (≈ 323 µM) | 16 µg/mL (≈ 40.4 µM) |  |
| Cc1cc(=O)oc2cc(/N=C3/S/C(=C\c4csc5ccccc45)C(=O)N3CCO)ccc12 | 128 µg/mL (≈ 277 µM) | 128 µg/mL (≈ 277 µM) | 64 µg/mL (≈ 138 µM) | 256 µg/mL (≈ 553 µM) | 128 µg/mL (≈ 277 µM) | 32 µg/mL (≈ 69.2 µM) | 128 µg/mL (≈ 277 µM) | 64 µg/mL (≈ 138 µM) | 128 µg/mL (≈ 277 µM) | 64 µg/mL (≈ 138 µM) | 8 µg/mL (≈ 17.3 µM) |  |
